Reference: US9187472B2 (AbbVie Inc., priority 2012, dated 2015)

How the values were obtained:
[1] = target: NAMPT (human, recombinant, C-terminally His-tagged) (Homo sapiens, UniProt P43490); experiment: Time-Resolved Fluorescence Resonance Energy Transfer (TR-FRET) Binding Assay of NAMPT; conditions: without substrates; 6.8 nM NAMPT, 200 nM probe, 3 hours equilibration
How it was run: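 Competitive binding against an Oregon Green 488 tracer (200 nM), 6.8 nM His-tagged enzyme, 1 nM Tb antibody, 2% DMSO, 3 h at RT. IC50 derived from TR-FRET ratios.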

NAMPT = NAMPT (Homo sapiens, UniProt P43490); experiment: TR-FRET Binding Assay of NAMPT with PRPP; conditions: with 200 μM PRPP and 2.5 mM ATP; 2 nM NAMPT, 2 nM probe, 16 hours equilibration
Sequence of NAMPT (P43490 whole entry): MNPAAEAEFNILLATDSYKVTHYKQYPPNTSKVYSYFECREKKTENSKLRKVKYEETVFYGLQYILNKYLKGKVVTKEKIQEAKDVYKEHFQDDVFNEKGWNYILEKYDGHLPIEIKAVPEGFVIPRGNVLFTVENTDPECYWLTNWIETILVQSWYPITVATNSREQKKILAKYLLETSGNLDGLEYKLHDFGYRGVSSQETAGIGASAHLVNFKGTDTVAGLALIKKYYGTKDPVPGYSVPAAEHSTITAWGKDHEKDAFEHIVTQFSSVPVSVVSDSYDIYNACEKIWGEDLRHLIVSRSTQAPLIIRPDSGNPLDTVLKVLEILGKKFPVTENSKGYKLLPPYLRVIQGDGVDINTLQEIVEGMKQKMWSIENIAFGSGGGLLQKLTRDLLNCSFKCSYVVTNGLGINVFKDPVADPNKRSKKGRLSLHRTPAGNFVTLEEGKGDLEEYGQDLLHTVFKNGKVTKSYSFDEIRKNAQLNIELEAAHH
How it was run: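 Read-out is TR-FRET after a 16 h equilibration allowing possible compound modification by the enzyme. Final mix: 2 nM NAMPT, 2 nM probe, 1 nM Tb-anti-His antibody, 200 μM PRPP, 2.5 mM ATP, 2% DMSO.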

PC3 cells = experiment: NAMPT Cell Proliferation Assay; assay type: cell-based; conditions: Homo sapiens, PC-3, 120 h, 5 days incubation, cell viability by Cell Titer Glo
How it was run: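 Seed PC3 at 500 cells/well (RPMI, 10% HI-FBS), attach overnight; add compound, 10-fold series 10 μM → 1×10^−5 μM; incubate 5 d, 37° C/5% CO2; luminescent viability readout; fit % inhibition sigmoidally for IC50.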

Sequence of NAMPT (human, recombinant, C-terminally His-tagged) (P43490 whole entry): as above

SMILES	IC50 [1] [nM]	IC50 (NAMPT) [nM]	IC50 (PC3 cells) [nM]
O=C(NCc1ccn2ccnc2c1)c1cnc(N(C[C@H]2CCCO2)C(=O)CCc2ccno2)s1 [Example 194, N-(imidazo[1,2-a]pyridin-7-ylmethyl)-2-{[3-(1,2-oxazol-5-yl)propanoyl][(2R)-tetrahydrofuran-2-ylmethyl]amino}-1,3-thiazole-5-carboxamide]	32.3	0.24	0.773
O=C(NCc1ccn2ccnc2c1)c1ccc(C2(NC(=O)C3CCOCC3)CCC2)s1 [Example 473, N-(1-{5-[(imidazo[1,2-a]pyridin-7-ylmethyl)carbamoyl]thiophen-2-yl}cyclobutyl)tetrahydro-2H-pyran-4-carboxamide]	> 10000	1.01	7850
CC(C)CC(=O)Nc1ncc(C(=O)NCc2ccc3nccn3c2)s1 [Example 137, N-(imidazo[1,2-a]pyridin-6-ylmethyl)-2-[(3-methylbutanoyl)amino]-1,3-thiazole-5-carboxamide]	315	7.21	225
O=C(NCc1ccn2ccnc2c1)c1ccc(C2CCN(C(=O)CCC(F)(F)F)CC2)s1 [Example 574, N-(imidazo[1,2-a]pyridin-7-ylmethyl)-5-[1-(4,4,4-trifluorobutanoyl)piperidin-4-yl]thiophene-2-carboxamide]	97.5	0.505	5.2
O=C(NCc1ccn2ccnc2c1)c1ccc(OC2CN(C(=O)CC3CC3)C2)cc1 [Example 560, 4-{[1-(cyclopropylacetyl)azetidin-3-yl]oxy}-N-(imidazo[1,2-a]pyridin-7-ylmethyl)benzamide]	969	0.312	844
O=C(Nc1ccc(C2CCN(C(=O)c3ccccc3)CC2)cc1)Nc1ccc2nccn2c1 [Example 112, 1-[4-(1-benzoylpiperidin-4-yl)phenyl]-3-imidazo[1,2-a]pyridin-6-ylurea]	46.5	0.169	6.96
O=C(NCc1ccc2nccn2c1)c1cnc(N(C[C@@H]2CCCO2)C(=O)C2CCOC2)s1 (stereo partly drawn) [Example 149, N-(imidazo[1,2-a]pyridin-6-ylmethyl)-2-{(tetrahydrofuran-3-ylcarbonyl)[(2S)-tetrahydrofuran-2-ylmethyl]amino}-1,3-thiazole-5-carboxamide]	> 10000	4.86	26.6
O=C(NCc1ccc2nccn2c1)c1cnc(N2Cc3ccccc3C2)s1 [Example 88, 2-(1,3-dihydro-2H-isoindol-2-yl)-N-(imidazo[1,2-a]pyridin-6-ylmethyl)-1,3-thiazole-5-carboxamide]	2850	8.55	8110
CC(C)C(=O)N1CC[C@@H](Oc2ccc(NC(=O)NCc3ccn4ccnc4c3)cc2)C1 [Example 330, 1-(imidazo[1,2-a]pyridin-7-ylmethyl)-3-(4-{[(3R)-1-(2-methylpropanoyl)pyrrolidin-3-yl]oxy}phenyl)urea]	320	0.432	22.9
O=C(NCc1ccn2ccnc2c1)Nc1ccc(O[C@@H]2CCN(C(=O)C3CC3)C2)cc1 [Example 331, 1-(4-{[(3R)-1-(cyclopropylcarbonyl)pyrrolidin-3-yl]oxy}phenyl)-3-(imidazo[1,2-a]pyridin-7-ylmethyl)urea]	383	0.416	227
CC(=O)N1CC=C(c2ccc(C(=O)NCc3ccn4ccnc4c3)s2)CC1 [Example 241, 5-(1-acetyl-1,2,3,6-tetrahydropyridin-4-yl)-N-(imidazo[1,2-a]pyridin-7-ylmethyl)thiophene-2-carboxamide]	67.4	0.169	8.48
O=C(NCc1ccn2ccnc2c1)c1ccc(C2CCN(C(=O)c3ccc(F)cc3F)C2)s1 (stereo not drawn) [Example 772, 5-[1-(2,4-difluorobenzoyl)pyrrolidin-3-yl]-N-(imidazo[1,2-a]pyridin-7-ylmethyl)thiophene-2-carboxamide]	61.5	0.828	2.4
O=C(Nc1ccc(C(=O)NCCN2CCOCC2)cc1)Nc1ccc2nccn2c1 [Example 5, 4-[(imidazo[1,2-a]pyridin-6-ylcarbamoyl)amino]-N-[2-(morpholin-4-yl)ethyl]benzamide]	2500	0.684	740
O=C(NCc1ccn2ccnc2c1)c1ccc(N2C[C@H](O)CC2=O)s1 [Example 267, 5-[(4R)-4-hydroxy-2-oxopyrrolidin-1-yl]-N-(imidazo[1,2-a]pyridin-7-ylmethyl)thiophene-2-carboxamide]	54.3	0.291	665
O=C(NCc1ccn2ccnc2c1)Nc1ccc(OC2CCN(C(=O)c3cc(F)ccc3F)CC2)cc1 [Example 728, 1-(4-{[1-(2,5-difluorobenzoyl)piperidin-4-yl]oxy}phenyl)-3-(imidazo[1,2-a]pyridin-7-ylmethyl)urea]	140	0.496	21
O=C(NCc1ccn2ccnc2c1)Nc1ccc(OC2CN(C(=O)c3ccccc3)C2)cc1 [Example 428, 1-{4-[(1-benzoylazetidin-3-yl)oxy]phenyl}-3-(imidazo[1,2-a]pyridin-7-ylmethyl)urea]	87.1	0.258	67.5
CC(C)OCC(=O)N1CC=C(c2ccc(C(=O)NCc3ccc4nccn4c3)cc2)CC1 [Example 98, N-(imidazo[1,2-a]pyridin-6-ylmethyl)-4-{1-[(propan-2-yloxy)acetyl]-1,2,3,6-tetrahydropyridin-4-yl}benzamide]	120	0.367	19.4

Other lines, results leading:

IC50 [1] [nM]	IC50 (NAMPT) [nM]	IC50 (PC3 cells) [nM]	SMILES
1290	0.455	486	O=C(NCc1ccn2ccnc2c1)c1ccc(O[C@@H]2CCN(C(=O)c3ccccc3)C2)cc1 [Example 493, 4-{[(3R)-1-benzoylpyrrolidin-3-yl]oxy}-N-(imidazo[1,2-a]pyridin-7-ylmethyl)benzamide]
767	0.544	677	Cn1ccc(C(=O)N2CCC(c3ccc(C(=O)NCc4ccn5ccnc5c4)cc3)C2)n1 (stereo not drawn) [Example 593, N-(imidazo[1,2-a]pyridin-7-ylmethyl)-4-{1-[(1-methyl-1H-pyrazol-3-yl)carbonyl]pyrrolidin-3-yl}benzamide]
381	0.41	77.7	O=C(NCc1ccn2ccnc2c1)Nc1ccc(C2CN(C(=O)[C@@H]3CCCO3)C2)cc1 [Example 459]
179	0.251	40	CC(C)C(=O)N1CCC(c2ccc(NC(=O)NCc3ccn4ccnc4c3)cc2)C1 (stereo not drawn) [Example 380, 1-(imidazo[1,2-a]pyridin-7-ylmethyl)-3-{4-[1-(2-methylpropanoyl)pyrrolidin-3-yl]phenyl}urea]
174	0.49	32.6	Cc1cccc(C(=O)N2CCC(c3ccc(C(=O)NCc4ccn5ccnc5c4)cc3)C2)c1 (stereo not drawn) [Example 616, N-(imidazo[1,2-a]pyridin-7-ylmethyl)-4-[1-(3-methylbenzoyl)pyrrolidin-3-yl]benzamide]
1050	0.305	> 10000	O=C(NCc1ccn2ccnc2c1)c1ccc(C2CCN(C(=O)C3CCOCC3)C2)cc1 (stereo not drawn) [Example 376, N-(imidazo[1,2-a]pyridin-7-ylmethyl)-4-[1-(tetrahydro-2H-pyran-4-ylcarbonyl)pyrrolidin-3-yl]benzamide]
123	0.187	2.57	CC[C@H](C)C(=O)N1CCC(c2ccc(C(=O)NCc3ccn4ccnc4c3)cc2)CC1 [Example 238, N-(imidazo[1,2-a]pyridin-7-ylmethyl)-4-{1-[(2S)-2-methylbutanoyl]piperidin-4-yl}benzamide]
58.1	0.199	6.73	O=C(NCc1ccn2ccnc2c1)c1ccc(C2CCN(C(=O)c3cc(F)ccc3F)CC2)cc1 [Example 522, 4-[1-(2,5-difluorobenzoyl)piperidin-4-yl]-N-(imidazo[1,2-a]pyridin-7-ylmethyl)benzamide]
218	0.738	38.5	Cn1cccc1C(=O)N1CC(c2ccc(C(=O)NCc3ccn4ccnc4c3)cc2)C1 [Example 656, N-(imidazo[1,2-a]pyridin-7-ylmethyl)-4-{1-[(1-methyl-1H-pyrrol-2-yl)carbonyl]azetidin-3-yl}benzamide]
368	0.249	30.8	N#CC1(C(=O)N2CCC(c3ccc(C(=O)NCc4ccn5ccnc5c4)cc3)CC2)CC1 [Example 514, 4-{1-[(1-cyanocyclopropyl)carbonyl]piperidin-4-yl}-N-(imidazo[1,2-a]pyridin-7-ylmethyl)benzamide]
631	0.209	17.9	CC1(C(=O)N2CCC(c3ccc(C(=O)NCc4ccn5ccnc5c4)cc3)CC2)COC1 [Example 512, N-(imidazo[1,2-a]pyridin-7-ylmethyl)-4-{1-[(3-methyloxetan-3-yl)carbonyl]piperidin-4-yl}benzamide]
